Data: patent publication EP4620955A1, “MC4R ANTAGONIST COMPOUND, PHARMACEUTICAL COMPOSITION AND PHARMACEUTICAL USE THEREOF” (Changchun Genescience Pharmaceutical Co., Ltd., priority 2022, dated 2024)
pIC50: −log10 of the molar value. Read-outs that look alike come from different tables or passages of the source.

What was measured:
MC4R = molecular target: T1, MC4R (Homo sapiens, UniProt P32245); test: Assay of MC4R antagonist activity in cells in vitro (cAMP assay, Melanotan I stimulation); type: cell-based; conditions: flipin-293-MC4 cell line, Melanotan I as agonist
T1 construct: expressed in transfected cells; host or cells: flipin-293-MC4 (Flp-In 293 host, hygromycin selection)
T1 sequence (P32245 whole entry): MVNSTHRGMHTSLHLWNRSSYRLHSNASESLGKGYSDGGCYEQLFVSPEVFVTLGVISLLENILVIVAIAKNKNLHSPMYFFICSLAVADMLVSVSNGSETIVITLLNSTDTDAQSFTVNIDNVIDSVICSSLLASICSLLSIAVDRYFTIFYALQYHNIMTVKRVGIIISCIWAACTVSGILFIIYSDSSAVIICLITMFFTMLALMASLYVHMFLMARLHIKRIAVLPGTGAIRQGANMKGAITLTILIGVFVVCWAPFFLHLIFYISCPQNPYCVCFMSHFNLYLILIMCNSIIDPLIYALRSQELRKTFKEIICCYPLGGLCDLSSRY
Method: Test Example 1: Assay of MC4R antagonist activity in cells in vitro
a. Experimental consumables:
b. Experimental steps • ✔ Cell line: flipin-293-MC4 • ✔ Cell culture medium: DMEM, 10% fetal bovine serum, 1 × PS, 200 µg/mL hygromycin • ✔ Experimental buffer: HBSS, 20 mM HEPES, 0.1% BSA, 500 µM IBMX • ✔ Positive compound: ML00253764 c. Antagonist detection • 1. Digested cells were suspended in the experimental buffer, and then inoculated into the 384-well cell culture plate. • 2. The to-be-detected compound was added to the cell plate, and incubated at 37°C for 10 min. • 3. Melanotan I was added to the cell plate, and incubated at 37°C for 30 min. • 4. Two detection reagents EU cAMP tracer and ulight anti camp were thawed and diluted with a lysis solution in the kit. • 5. The diluted detection reagents were added to the cell plate and incubated at room temperature for 1 h. • 6. Reading was carried out by Envision. (Excitation light: 340 nm, emission light: 615 nm and 665 nm) d. Data analysis • 1. %Inhibition calculation: %Inhibition = (Signalcmpd−SignalAve_VC)/(SignalAve_PC−SignalAve_VC) × 100. [formula] • Signalcmpd: compound signal value; • SignalAve_VC: negative control signal value; • SignalAve_PC: positive control signal value; • %inhibition: inhibition percentage. • 2. Calculation of IC50 of the compound using the nonlinear fitting equation in GraphPad: Y = Bottom + (Top−Bottom)/(1+10^(∧)((LogIC50−X)×HillSlope)) [formula] X: logarithmic value of the concentration of the compound; Y: inhibition percentage

[1] = Pharmacokinetic study on the tested compound in SD male rats; type: in vivo; conditions: IV 1 mpk/PO 2 mpk; for AUC / Cmax / clearance / half-life: Sprague-Dawley (SD), rat, plasma
Method: On the day of administration, the tested compound was prepared with 5% DMSO + 5% Solutol + 90% Saline as a solvent into a solution for administration for use.
The solution for administration was administered to an intravenous injection IV group at a dose of 1 mg/kg in a concentration of 0.2 mg/mL. The solution for administration was administered to an oral gavage PO group at a dose of 2 mg/kg in a concentration of 0.2 mg/mL. The animals in the PO group were required to fast overnight in advance, drink water freely, and be fed 4 hours after administration. The IV group was not required to fast.
The animals were weighed before administration. On the day of administration, the solution was IV/PO-administered once in an administration amount calculated based on the weight. In the IV group, blood was collected from veins at 0.083 h, 0.25 h, 0.5 h, 1.0 h, 2.0 h, 4.0 h, 8.0 h, and 24 h after administration. In the PO group, blood was collected from veins at 0.25 h, 0.5 h, 1.0 h, 2.0 h, 4.0 h, 6.0 h, 8.0 h, and 24 h after administration. The amount of blood collected was about 0.20 mL. K2-EDTA was used in blood collection tubes as an anticoagulant. The collected blood sample was centrifuged (centrifugation conditions: 6800 g, 6 min, 2°C to 8°C) within 1 h to obtain plasma. The to-be-tested sample was stored in a refrigerator at -80°C before analysis.
The concentration of the tested compound in the plasma of the SD male rats was detected by the validated LC-MS/MS method.

CYP 3A4M = molecular target: T2, CYP 3A4M (Homo sapiens, UniProt P08684); test: Inhibition of P450 enzyme (CYP 3A4, midazolam as substrate) in human liver microsomes; type: in vitro ADME
T2 construct: from tissue; host or cells: human liver microsomes (HLM)
T2 sequence (P08684 whole entry): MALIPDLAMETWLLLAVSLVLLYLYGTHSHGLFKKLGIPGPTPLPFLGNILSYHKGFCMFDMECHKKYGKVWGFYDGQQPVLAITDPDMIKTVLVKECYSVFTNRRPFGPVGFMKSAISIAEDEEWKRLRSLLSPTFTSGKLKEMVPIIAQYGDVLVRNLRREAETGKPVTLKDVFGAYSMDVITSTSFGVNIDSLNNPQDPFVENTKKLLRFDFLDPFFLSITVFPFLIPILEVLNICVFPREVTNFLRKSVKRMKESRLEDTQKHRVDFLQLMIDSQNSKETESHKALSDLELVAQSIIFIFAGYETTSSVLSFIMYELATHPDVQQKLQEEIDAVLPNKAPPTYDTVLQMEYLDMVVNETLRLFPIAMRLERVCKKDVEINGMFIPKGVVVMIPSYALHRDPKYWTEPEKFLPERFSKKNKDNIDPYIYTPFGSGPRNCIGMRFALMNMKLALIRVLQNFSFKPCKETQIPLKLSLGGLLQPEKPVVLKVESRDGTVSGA
Method: The inhibitory effect of the tested compound on 3A4-M (with midazolam as a substrate) in human liver microsomes is evaluated in vitro to assess the safety of the compound.
In this study, the inhibition of CYP 3A4 enzyme in human liver microsomes by the tested compound was investigated using the human liver microsomal system and the cytochrome P450 enzyme probe substrate recommended by the FDA Guidance for In Vitro Drug Interaction Studies. The human liver microsomes were incubated separately with the tested compound of different concentrations (0 µM to 30.0 µM) and corresponding probe substrates. Then, the changes of activity of the CYP enzyme were determined, and the IC50 value was calculated, to evaluate the inhibitory potential of the tested compound on the CYP 3A4 enzyme.
Test group (TG): The human liver microsomes were incubated separately with the tested compound of different concentrations, NADPH (in a final concentration of 2.00 mM), and probe substrates (Table 4) of different enzymes in subfamilies for 5 min.
Positive control group (PC): The human liver microsomes were incubated separately with an inhibitor (Table 4), NADPH (in a final concentration of 2.00 mM), and a probe substrate (Table 4) of 3A4M for 5 min. Table 4 Probe substrate of each enzyme in the subfamily, inhibitor, and incubation system
At the end of the incubation, the reaction was terminated with a stop solution.
8 µL of 30 mM test sample was transferred to 12 µL of DMSO to give a 12 mM test sample intermediate solution, and then diluted with DMSO to give test sample working solutions in different concentrations (12 mM, 4 mM, 1.33 mM, 0.433 mM, 0.147 mM, 0.049 mM, and 0.0164 mM).
To 12 µL of DMSO was added 8 µL of 2.5 mM CYP3A4 inhibitor ketoconazole stock solution to give a 1 mM positive control inhibitor working solution.
(§1) 199 µL of 0.2 mg/mL HLM and 1 µL of test sample working solution (12 mM, 4 mM, 1.33 mM, 0.433 mM, 0.147 mM, 0.049 mM, and 0.0164 mM) were mixed uniformly. 30 µL of this liver microsome solution was added to a 96-well plate, and then 10 µL of substrate working solution (320 µM testosterone or 20 µM midazolam) was added. This preparation process was carried out in duplicate. After pre-incubation at 37°C for 5 min, 15 µL of 8 mM NADPH solution pre-warmed at 37°C for 5-10 min was added to initiate the reaction. After incubation in the 96-well plate at 37°C for 5 min, 180 µL of acetonitrile/methanol (ACN:MeOH = 1:1) solution containing the internal standard (IS) was added to terminate the reaction. The 96-well plate was shaken at 600 rpm for 5-10 min, and then centrifuged at 6000 rpm for 15 min. 80 µL of supernatant was taken and added to 120 µL of ultrapure water, shaken uniformly, and then detected by LC-MS/MS.
as §1, with “1 mM positive control inhibitor (ketoconazole)” for “test sample”, “solution” for “solution (12 mM, 4 mM, 1.33 mM, 0.433 mM, 0.147 mM, 0.049 mM, and 0.0164 mM)”, “(20” for “(320 µM testosterone or 20”, “ACN:MeOH (1:1)” for “acetonitrile/methanol (ACN:MeOH = 1:1)”, “IS” for “the internal standard (IS)”, “LC-MS/MS. […]” for “LC-MS/MS.”

[2] = human liver microsomes 0.100 mg/mL, midazolam 5.00 µM as substrate, 5 min incubation, read-out: CYP 3A4M IC50

pIC50 (CYP 3A4M; [2]) | Structure (SMILES) | pIC50 (MC4R) | F [1] [%] | AUC [1] [ng·h/mL] | Cmax [1] [ng/mL] | clearance [1] [mL/min/kg] | half-life [1] [min] | pIC50 (CYP 3A4M)
5.24 | COc1cc([C@@H](C)C(=O)N2CC[C@H](Nc3ccc(-c4ncccn4)c(C)n3)C2)c(Cl)cn1 [Compound 083-1, (R)-2-(5-chloro-2-methoxypyridine-4-yl)-1-((S)-3-((6-methyl-5-(pyrimidine-2-yl)pyridine-2-yl)amino)pyrrolidine-1-yl)propane-1-one] | 8.74 | 31.3 | 240 | 156 | 43.7 | 39 | 
5.43 | COc1cc([C@@H](C)C(=O)N2CC[C@H](Nc3ccc(-c4ncccn4)c(C)n3)C2)c(Br)cn1 [Compound 200, (R)-2-(5-bromo-2-methoxypyridine-4-yl)-1-((S)-3-((6-methyl-5-(pyrimidine-2-yl)pyridine-2-yl)amino)pyrrolidine-1-yl)propan-1-one] | 9.01 |  |  |  |  |  | 
 | COc1cc([C@@H](C)C(=O)N2C[C@@H](Nc3ccc(-c4cn(C)nn4)c(C)n3)C3(CC3)C2)c(Cl)cn1 [Compound 165, (R)-2-(5-chloro-2-methoxypyridine-4-yl)-1-((S)-7-((6-methyl-5-(1-methyl-1H-1,2,3-triazol-4-yl)pyridine-2-yl)amino)-5-azaspiro[2.4]hept-5-yl)propan-1-one] | 8.54 | 56.0 | 858 | 577 | 22.3 | 39 | 
 | COc1cc([C@@H](C)C(=O)N2C[C@@H](Nc3ccc(-c4ncccn4)c(C)n3)C3(CC3)C2)c(Br)cn1 [Compound 201, (R)-2-(5-bromo-2-methoxypyridine-4-yl)-1-((S)-7-((6-methyl-5-(pyrimidine-2-yl)pyridine-2-yl)amino)-5-azaspiro[2.4]hept-5-yl)propan-1-one] | 8.85 |  |  |  |  |  | < 4.52
 | COc1cc([C@@H](C)C(=O)N2CC[C@H](Nc3ccc(-c4ncccn4)c(C)n3)C2)c(F)cn1 [Compound 001-1, (R)-2-(5-fluoro-2-methoxypyridine-4-yl)-1-((S)-3-((6-methyl-5-(pyrimidine-2-yl)pyridine-2-yl)amino)pyrrolidine-1-yl)propan-1-one] | 8.40 | 86.8 | 442 | 338 | 65.3 | 42.6 | 
5.53 | COc1cc([C@@H](C)C(=O)N2CC[C@H](Nc3ccc(-c4nccc(C#N)n4)c(C)n3)C2)c(F)cn1 [Compound 111, 2-(6-(((S)-1-((R)-2-(5-fluoro-2-methoxypyridine-4-yl)propionyl)pyrrolidine-3-yl)amino)-2-methylpyridine-3-yl)pyrimidine-4-nitrile] | 8.47 |  |  |  |  |  | 

Structure (SMILES) | pIC50 (CYP 3A4M; [2]) | pIC50 (MC4R) | F [1] [%] | AUC [1] [ng·h/mL] | Cmax [1] [ng/mL] | clearance [1] [mL/min/kg] | half-life [1] [min] | pIC50 (CYP 3A4M)
COc1cc([C@@H](C)C(=O)N2C[C@@H](Nc3ccc(-c4ncccn4)c(C)n3)C3(CC3)C2)c(Cl)cn1 [Compound 114, (R)-2-(5-chloro-2-methoxypyridine-4-yl)-1-((S)-7-((6-methyl-5-(pyrimidine-2-yl)pyridine-2-yl)amino)-5-azaspiro[2.4]heptane-5-yl)propan-1-one] | 4.53 | 8.61 | 54.0 | 450 | 197 | 39.9 | 58.8 | 
COc1cc([C@@H](C)C(=O)N2C[C@@H](Nc3ccc(-c4nccc(C#N)n4)c(C)n3)C3(CC3)C2)c(F)cn1 [Compound 116, 2-(6-(((S)-5-((R)-2-(5-fluoro-2-methoxypyridine-4-yl)propionyl)-5-azaspiro[2.4]heptane-7-yl)amino)-2-methylpyridine-3-yl)pyrimidine-4-nitrile] | < 4.52 | 8.67 |  |  |  |  |  | 
